# Test results taken from USRE29244E, “Coccidiostats” (priority 1976, dated 1977).
# Structures can show the parent of a compound that is named as a salt. Where two headings read alike, the source gives them in different places.
# Experiments:
# [1] = Acute oral toxicity in broiler chicks; details: chicken, in vivo; oral single dose, 9- or 8-day-old chicks; limits given as 59 ±3 mg. and 84 ±7 mg.
# Eimeria tenella = Eimeria tenella infection in laboratory chickens; type: in vivo; parameters: Average degree of infection: scale not given here; details: for Weight gain: uninfected control 100
# Experimental: (A) Eimeria tanella infection in laboratory chickens
# (§1) Test method.--This test utilizes ten chickens per drug group. Ten chickens are employed as a weight control and ten chickens as an infected control. The drug is given 48 hours in advance of the infection. One gm. of the test drug is mixed in a mechanical mixer with a sufficient amount of chicken feed to result in the desired dosage. The infection consists of approximately 200,000 oocysts given orally by pipette. The tests lasts for eleven days and then the surviving birds are autopsied and examined for gross lesions in the ceca. The test birds are rated according to the number of survivors and the number of cecal lesions. The results are expressed as average degree of infection (A.D.I.). An average degree of infection of less than 2.5 is considered significant.
# gram-negative bacteria = assay: In vitro antibacterial activity; type: cell-based
# [2] = Continuous feeding of chicks for nine weeks; type: in vivo, chicken
# Source text: At 0.025%, growth is reduced, feed conversion impaired and 25% mortality occurs.
# Toxic dosage in mice = type: in vivo; details: for MTD: mouse, in vivo, read-out: Tolerated dose
# Source text: The toxic dosage of the antibiotic as tested in mice and designated as the lethal dose is as follows: […]
# gram-positive bacteria = assay: In vitro antibacterial activity; type: cell-based
# mycobacteria = assay: In vitro antibacterial activity; type: cell-based
# Bacillus mesentericus = assay: Antimicrobial spectrum, plate assay; type: cell-based
# Experimental: (§2) The following table summarizes the antimicrobial spectrum of antibiotic X-537A:
# (§3) Antimicrobial spectrum of antibiotic X-537A
# (§4) Test organism: Plate units per mg.
# (§5) The antibiotic can be prepared by growing the Streptomyces organisms in an aerated submerged culture. This can be done in either a shaken flask or in 50-1,000 gallon stainless steel and iron fermentation tanks. The broths are adjusted to a pH which is about neutral, i.e., 6.5-7.5 prior to be sterilized and are then incubated at slightly elevated temperatures, e.g., about 27° to 30° C., after being inoculated with spore suspensions or vegetative growth. The reaction broth is then filtered and the active material is extracted with a suitable solvent, preferably methanol, n-butanol or butyl acetate. The antibiotic activity is followed by cup-plate agar diffusion assay in which the test organism Bacillus E is employed. In general, the concentration of antibiotic required to produce an inhibition zone of 20-22 mm. in diameter with any of the test organisms is considered to be 1 unit per ml. Whole broths are diluted for assay in 1% phosphate buffer, pH 6.0.
# [3] = tested on: Scopulariopsis brevicaulis; assay: Antimicrobial spectrum, plate assay; type: cell-based
# Experimental: as §2, §3, §4, §5
# Staphylococcus aureus = assay: Antimicrobial spectrum, plate assay; type: cell-based
# Experimental: as §2, §3, §4, §5
# Bacillus cereus = assay: Antimicrobial spectrum, plate assay; type: cell-based
# Experimental: as §2, §3, §4, §5
# Bacillus E = assay: Antimicrobial spectrum, plate assay; type: cell-based
# Experimental: as §2, §3, §4, §5
# Corynebacterium simplex = assay: Antimicrobial spectrum, plate assay; type: cell-based
# Experimental: as §2, §3, §4, §5
# Saccharomyces cerevisiac = assay: Antimicrobial spectrum, plate assay; type: cell-based
# Experimental: as §2, §3, §4, §5
# Sarcina lutea = assay: Antimicrobial spectrum, plate assay; type: cell-based
# Experimental: as §2, §3, §4, §5
# Mycobacterium phlei = assay: Antimicrobial spectrum, plate assay; type: cell-based
# Experimental: as §2, §3, §4, §5
# Bacillus simplex = assay: Antimicrobial spectrum, plate assay; type: cell-based
# Experimental: as §2, §3, §4, §5
# [4] = tested on: mixtures of E. tenella, E. necatrix, E. acervulina, E. brunetti, E. maxima, E. mivati; assay: Multiple Eimeria infections in chickens; type: in vivo, Eimeria (mixture; in chickens); details: for Average degree of infection: <2.5 significant; for Weight gain: uninfected control 100
# Experimental: as §1
# (B) Multiple Eimeria infections in chickens
# Test method.--The test method is the same as for Eimeria tenella. The multiple Eimeria infections tested herein are mixtures of E. tenella, E. necatrix, E. acervulina, E. brunetti, E. maxima, E. mivati infections.
# coccidiosis = assay: Control of coccidiosis by medicated feed (general statements); type: in vivo, poultry (turkeys, chickens)
# Source text: Thus, the compositions of this invention not only control coccidiosis, but also, aid in improving the efficiency of conversion of feed to weight gains.
# Thus, for example, a feed premix or complete feed contains sufficient active ingredient to provide from about 0.001% to about 0.0125% by weight of the daily feed consumption. Preferably, about 0.00312% to 0.00625% by weight is used. Generally, about 0.005% to about 0.006% of the active ingredient is sufficient for the purpose of controlling and combating coccidiosis.
# Even though amounts over 0.00625% are efficacious for combating coccidiosis, this amount is the preferred upper range because of economics, i.e., the cost per unit of effectiveness is lowest within this range. Amounts lower than 0.001% and in some cases lower than 0.003% are not effective for combating coccidiosis. Preferred is a lower limit of 0.00312% because this insures efficaciousness. The most preferred amount, i.e., about 0.005% to about 0.006% by weight of the poultry daily feed consumption is particularly efficacious since it achieves maximum effect with minimum dose. The range of the weight amounts of active antibiotic in the dried unfiltered broth solids which are efficacious for combating coccidiosis is the same as for the crystalline material or its salts. For example, when administered in feed to chicks so as to contain a dosage of 0.003% of active ingredient, the crude dried unfiltered broth results in an average degree of infection of 1.4 while at the same dosage, the sodium salt of the crystalline antibiotic results in an average degree of infection of 1.7. At a dosage equivalent to a concentration of active ingredient of 0.006%, the dried material results in an average degree of infection of 0.0 while the sodium salt of the crystalline antibiotic results in an average degree of infection of 0.2.
# Gram-negatives = assay: Antimicrobial spectrum, plate assay; type: cell-based; details: Gram-negatives: Pseudomonas acruginosa, Aerobacillus polymyxa, Escherichia coli
# Source text: as §2, §3, §4
# *These were Pseudomonas acruginosa, Aerobacillus polymyxa and Escherichia
# as §5
smiles,measurement,setting,value
CCC(C(=O)C(C)C(O)C(C)CCc1ccc(C)c(O)c1C(=O)O)C1OC(CC)(C2CCC(O)(CC)C(C)O2)CC1C (centres unmarked) [sodium salt of antibiotic X-537A],LD50,[1],59 to 84 mg/kg
same,Average degree of infection,Eimeria tenella; text: 0.003% of active ingredient in feed to chicks,1.7
same,Average degree of infection,Eimeria tenella; text: 0.006% of active ingredient in feed to chicks,0.2
CCC(C(=O)C(C)C(O)C(C)CCc1ccc(C)c(O)c1C(=O)O)C1OC(CC)(C2CCC(O)(CC)C(C)O2)CC1C (centres unmarked) [antibiotic X-537A],Activity in vitro against gram-negative bacteria,gram-negative bacteria,inactive
same,Feed conversion,[2]; 0.025% in feed,impaired
same,Growth,[2]; 0.025% in feed,reduced
same,mortality at 1512 h,"[2]; chicken, in vivo, po, 0.025% in feed",25%
same,"Adverse effects on performance (growth, feed efficiency and mortality)","[2]; up to 0.0125% by weight in feed, nine weeks",no adverse effects
same,Percent mortality,"Eimeria tenella; Test I, 0.00312% in feed",0%
same,Average degree of infection,"Eimeria tenella; Test I, 0.00312% in feed, <2.5 significant",2.2
same,Weight gain,"Eimeria tenella; Test I, 0.00312% in feed",85%
same,Percent mortality,"Eimeria tenella; Test I, 0.00625% in feed",0%
same,Average degree of infection,"Eimeria tenella; Test I, 0.00625% in feed, <2.5 significant",0.4
same,Weight gain,"Eimeria tenella; Test I, 0.00625% in feed",92%
same,Percent mortality,"Eimeria tenella; Test II, 0.001% in feed",15%
same,Average degree of infection,"Eimeria tenella; Test II, 0.001% in feed, <2.5 significant",2.8
same,Weight gain,"Eimeria tenella; Test II, 0.001% in feed",80%
same,Percent mortality,"Eimeria tenella; Test II, 0.002% in feed",15%
same,Average degree of infection,"Eimeria tenella; Test II, 0.002% in feed, <2.5 significant",2.6
same,Weight gain,"Eimeria tenella; Test II, 0.002% in feed",83%
same,Percent mortality,"Eimeria tenella; Test II, 0.003% in feed",5%
same,Average degree of infection,"Eimeria tenella; Test II, 0.003% in feed, <2.5 significant",2.2
same,Weight gain,"Eimeria tenella; Test II, 0.003% in feed",85%
same,Percent mortality,"Eimeria tenella; Test II, 0.004% in feed",15%
same,Average degree of infection,"Eimeria tenella; Test II, 0.004% in feed, <2.5 significant",1.7
same,Weight gain,"Eimeria tenella; Test II, 0.004% in feed",87%
same,Percent mortality,"Eimeria tenella; Test II, 0.005% in feed",5%
same,Average degree of infection,"Eimeria tenella; Test II, 0.005% in feed, <2.5 significant",0.8
same,Weight gain,"Eimeria tenella; Test II, 0.005% in feed",94%
same,Percent mortality,"Eimeria tenella; Test II, 0.006% in feed",0%
same,Average degree of infection,"Eimeria tenella; Test II, 0.006% in feed, <2.5 significant",0.1
same,Weight gain,"Eimeria tenella; Test II, 0.006% in feed",95%
same,Average degree of infection,"Eimeria tenella; Test III, 0.003% in feed, <2.5 significant",1.7
same,Weight gain,"Eimeria tenella; Test III, 0.003% in feed",79%
same,Average degree of infection,"Eimeria tenella; Test III, 0.004% in feed, <2.5 significant",1.1
same,Weight gain,"Eimeria tenella; Test III, 0.004% in feed",81%
same,Average degree of infection,"Eimeria tenella; Test III, 0.005% in feed, <2.5 significant",0.5
same,Weight gain,"Eimeria tenella; Test III, 0.005% in feed",98%
same,Average degree of infection,"Eimeria tenella; Test III, 0.006% in feed, <2.5 significant",0.2
same,Weight gain,"Eimeria tenella; Test III, 0.006% in feed",97%
same,Effectiveness in treatment of coccidiosis,Eimeria tenella; at the preferred dosages illustrated,effective
same,Effect on conversion of feed to weight gain,Eimeria tenella; used as a coccidiostat,does not substantially adversely affect
same,Lethal dose,Toxic dosage in mice; intraperitoneal,62.5 mg/kg
same,MTD,"Toxic dosage in mice; ip, intraperitoneal",50 mg/kg
same,MTD,Toxic dosage in mice; oral,62.5 mg/kg
same,MTD,"Toxic dosage in mice; sc, subcutaneous",62.5 mg/kg
same,Lethal dose,Toxic dosage in mice; oral,125 mg/kg
same,Lethal dose,Toxic dosage in mice; subcutaneous,125 mg/kg
same,Activity in vitro against gram-positive bacteria,gram-positive bacteria,active
same,Activity in vitro against mycobacteria,mycobacteria,active
same,Antimicrobial activity,Bacillus mesentericus,50 Plate units per mg.
same,Antimicrobial activity,[3],0 Plate units per mg.
same,Antimicrobial activity,Staphylococcus aureus,20 Plate units per mg.
same,Antimicrobial activity,Bacillus cereus,120 Plate units per mg.
same,Antimicrobial activity,Bacillus E; Bacillus E,800 Plate units per mg.
same,Bacillus E assay,Bacillus E; crystalline material from petroleum ether (contained sodium),500 E units per mg.
same,Bacillus E assay,Bacillus E; free acid recrystallized from ethanol,800 E units per mg.
same,Antimicrobial activity,Corynebacterium simplex,20 Plate units per mg.
same,Antimicrobial activity,Saccharomyces cerevisiac,0 Plate units per mg.
same,Antimicrobial activity,Sarcina lutea,500 Plate units per mg.
same,Antimicrobial activity,Mycobacterium phlei,20 Plate units per mg.
same,Antimicrobial activity,Bacillus simplex,20 Plate units per mg.
same,Percent mortality,[4]; 0.00312% in feed,0%
same,Average degree of infection,[4]; 0.00312% in feed,0.9
same,Weight gain,[4]; 0.00312% in feed,105%
same,Percent mortality,[4]; 0.00625% in feed,0%
same,Average degree of infection,[4]; 0.00625% in feed,0.0
same,Weight gain,[4]; 0.00625% in feed,108%
same,Efficiency of conversion of feed to weight gain,[4]; chickens,greater than expected
same,Effectiveness in treating multiple coccidiosis infections,[4]; in vivo,effective
same,Effectiveness against coccidiosis,coccidiosis; amounts greater than 0.0125% of feed,"effective against coccidiosis, do not generally show improved results over 0.0125%"
same,"Effect on growth, feed efficiency and mortality","coccidiosis; amounts greater than 0.0125% of feed, in some cases","may adversely affect the growth, feed efficiency and mortality"
same,Effectiveness against coccidiosis,coccidiosis; amounts lower than 0.001% and in some cases lower than 0.003% of feed,not effective
same,Toxicity / untoward side effects,coccidiosis; at dosages necessary to control coccidiosis,not toxic and shows no untoward side effects
same,Weight of treated fowl compared to controls,"coccidiosis; oral, as component of feed",either maintain their weight or actually gain weight
same,Control of coccidiosis,"coccidiosis; oral, as component of feed, turkeys and chickens",effectively controls the disease
same,Antimicrobial activity,Gram-negatives,0 Plate units per mg.
